# Laboratory results taken from patent publication US7060698B2, “Benzoxazepinone derivatives” (Hoffmann-La Roche Inc., priority 2003, dated 2006).
# Target: γ-secretase (Homo sapiens, UniProt P49768)
# Assay: in vitro assay of γ-secretase activity (HEK293 membrane fraction, recombinant APP substrate, Abeta ELISA)
# Format: biochemical
# Conditions: statement in the synthesis example on the separated diastereomers; assay not named
# Source text: The activity of test compounds can be evaluated in assays which measure the proteolytic cleavage of suitable substrates by γ-secretase activity. These can be cellular assays where e.g., a substrate of the γ-secretase is fused in its cytoplasmic domain to a transcription factor. Cells are transfected with this fusion gene and a reporter gene, e.g., firefly luciferase, which expression is enhanced by the transcription factor. Cleavage of the fused substrate by γ-secretase will lead to expression of the reporter gene which can be monitored in appropriate assays. The γ-secretase activity can also be determined in cell-free in vitro assays where e.g., a cell lysate containing the γ-secretase complex is incubated with a suitable APP-derived substrate which is cleaved to the Abeta peptides. The amount of produced peptides can be determined with specific ELISA assays. Cell lines of neuronal origin secrete Abeta peptides which can be measured with the specific ELISA assay. Treatment with compounds which inhibit γ-secretase leads to a reduction of secreted Abeta thus providing a measure of inhibition. The in vitro assay of γ-secretase activity uses a HEK293 membrane fraction as a source of γ-secretase and a recombinant APP substrate. Latter consist of the C-terminal 100 amino acids of human APP fused to a 6× Histidin tail for purification which is expressed in E. coli in a regulatable expression vector, e.g. pEt15. This recombinant protein corresponds to the truncated APP fragment which results after […] of the extracellular domain and which constitutes the γ-secretase substrate. The assay principle is described in Li Y M et al, PNAS 97(11), 6138–6143 (2000). Hek293 cells are mechanically disrupted and the microsomal fraction is isolated by differential centrifugation. The membranes are solubilized in detergent (0.25% CHAPSO) and incubated with the APP substrate.
row,inhibitory activity of the separated diastereomers,Structure (SMILES)
1,both inhibitorily active,"CCC1Oc2ccc(Cl)cc2C(C(=O)NC2CCCCC2)N(C2CCCCC2)C1=O (stereo not drawn) [Example 6, 7-Chloro-4-cyclohexyl-2-ethyl-3-oxo-2,3,4,5-tetrahydro-benzo[f][1,4]oxazepine-5-carboxylic acid cyclohexylamide]"
2,both inhibitorily active,"CCC1Oc2ccc(Cl)cc2C(C(=O)NC2CCCCC2)N(Cc2ccccc2Cl)C1=O (stereo not drawn) [Example 7, 7-Chloro-4-(2-chloro-benzyl)-2-ethyl-3-oxo-2,3,4,5-tetrahydro-benzo[f][1,4]oxazepine-5-carboxylic acid cyclohexylamide]"
3,both inhibitorily active,"CCC1Oc2ccc(Cl)cc2C(C(=O)NC2CCCCC2)N(C2CCCC2)C1=O (stereo not drawn) [Example 9, 7-Chloro-4-cyclopentyl-2-ethyl-3-oxo-2,3,4,5-tetrahydro-benzo[f][1,4]oxazepine-5-carboxylic acid cyclohexylamide]"
4,both inhibitorily active,"CCC1Oc2ccc(Cl)cc2C(C(=O)NC2CCCCC2)N(C2CCOCC2)C1=O (stereo not drawn) [Example 10, 7-Chloro-2-ethyl-3-oxo-4-(tetrahydro-pyran-4-yl)-2,3,4,5-tetrahydro-benzo[f][1,4]oxazepine-5-carboxylic acid cyclohexylamide]"
5,both inhibitorially active,"CCC1Oc2ccc(Cl)cc2C(C(=O)NC2CCCCC2)N(Cc2cccc(C(F)(F)F)c2)C1=O (stereo not drawn) [Example 11, 7-Chloro-2-ethyl-3-oxo-4-(3-trifluoromethyl-benzyl)-2,3,4,5-tetrahydro-benzo[f][1,4]oxazepine-5-carboxylic acid cyclohexylamide]"
6,both inhibitorially active,"CCC1Oc2ccc(Cl)cc2C(C(=O)NC(C)(C)C)N(Cc2c(F)cccc2F)C1=O (stereo not drawn) [Example 12, 7-Chloro-4-(2,6-difluoro-benzyl)-2-ethyl-3-oxo-2,3,4,5-tetrahydro-benzo[f][1,4]oxazepine-5-carboxylic acid tert-butylamide]"
7,both inhibitorily active,"CCC1Oc2ccc(Cl)cc2C(C(=O)NC(C)(C)C)N(C2CCCCC2)C1=O (stereo not drawn) [Example 13, 7-Chloro-4-cyclohexyl-2-ethyl-3-oxo-2,3,4,5-tetrahydro-benzo[f][1,4]oxazepine-5-carboxylic acid tert-butylamide]"
8,both inhibitorily active,"CCC1Oc2ccc(Cl)cc2C(C(=O)NC(C)(C)C)N(Cc2ccccc2Cl)C1=O (stereo not drawn) [Example 14, 7-Chloro-4-(2-chloro-benzyl)-2-ethyl-3-oxo-2,3,4,5-tetrahydro-benzo[f][1,4]oxazepine-5-carboxylic acid tert-butylamide]"
9,both inhibitorily active,"CCC1Oc2ccc(Cl)cc2C(C(=O)NC(C)(C)C)N(C2CCCC2)C1=O (stereo not drawn) [Example 16, 7-Chloro-4-cyclopentyl-2-ethyl-3-oxo-2,3,4,5-tetrahydro-benzo[f][1,4]oxazepine-5-carboxylic acid tert-butylamide]"
